Five molecules from patent US11633392B2 (priority 2016, dated 2023) can be followed below.

Series [1] addresses T1, human opioid δ receptor (Homo sapiens, UniProt P41143).
T1 construct: host or cells: CHO cells
The series can be described thus: Opioid receptor function test (Lance Ultra cAMP Kit), δ receptor. The format is cell-based. As to conditions: for EC50: CHO cells expressing human δ receptor, cAMP, in the presence of forskolin; for Emax: ratio to maximum reaction of control drug SNC80 taken as 100%. The procedure:
(§1) Opioid Receptor Function Test
(§2) The functional activities of the compounds provided by the present invention on the μ, δ, and κ opioid receptors were investigated.
(§3) The test was performed by using Lance Ultra cAMP Kit (PerkinElmer) according to a method predetermined for the kit. In the evaluation of the agonistic activity, CHO cells expressing each of the human opioid receptors (δ, μ, and κ, accession numbers and catalog numbers are mentioned below) and 10 μM of each test compound were reacted for 30 minutes in an assay buffer (1× HBSS, […], pH 7.4, […] (isobutylmethylxanthine), 7.5% BSA) in the presence of forskolin. Subsequently, the cAMP detection reagent included in the kit was added, and 1 hour afterward, time-resolved fluorescence measurement was performed by using the EnVision plate reader (PerkinElmer). The test compounds and the control drugs (δ: SNC80, μ: DAMGO, κ: U-69593) were evaluated in a concentration range of 10^−12 to 10^−5 M, a dose-response curve of each test compound was obtained from the fluorescence values at 665 nm, and EC50 value and the Emax value were calculated. The Emax value was calculated as a ratio of the maximum reaction of the test compound to the maximum reaction of each control drug, which is taken as 100%.
(§4) • δ: Catalog No. CT4607, Accession No. NM_000911.2 • μ: Catalog No. CT4605, Accession No. NM_000914 • κ: Catalog No. CT4606, Accession No. NM_000912 (ChanTest Corporation)

The target of series [2] is T2, human opioid μ receptor (Homo sapiens, UniProt P35372).
T2 construct: host or cells: CHO cells
In words: Opioid receptor function test (Lance Ultra cAMP Kit), μ receptor. The format is cell-based. The note with it: for μ receptor reaction rate at the maximum concentration (reference value, marked *): maximum reaction not reached, maximum concentration 10 μM, DAMGO = 100%; for EC50: CHO cells expressing human μ receptor, cAMP, in the presence of forskolin, read-out: μ receptor EC50 value; for Emax: ratio to maximum reaction of control drug DAMGO taken as 100%. How it is done: as §1, §2, §3, §4

Series [3] addresses T3, human opioid κ receptor (Homo sapiens, UniProt P41145).
T3 construct: host or cells: CHO cells
In words: Opioid receptor function test (Lance Ultra cAMP Kit), κ receptor. The class given is cell-based. The note with it: for EC50: CHO cells expressing human κ receptor, cAMP, in the presence of forskolin; for Emax: ratio to maximum reaction of control drug U-69593 taken as 100%. The procedure: as §1, §2, §3, §4

The test system of series [4] is C57BL/6N male mice. In words: Mouse elevated plus maze test. The class given is in vivo. The note with it: subcutaneous. How it is done: Mouse Elevated Plus Maze Test
For the test, 5 to 6 weeks old C57BL/6N male mice were used. On a plus maze apparatus consisting of a wall-less running route (open arm, width 6 cm, length 30 cm) and a running route with a wall (closed arm, width 6 cm, length 30 cm, height of wall 15 cm), and having a height of 40 cm, a mouse was put so as to be directed to the running route with a wall, and allowed to spontaneously enter into the plus maze. Each test substance was dissolved in saline or 0.005 N HCl in saline, and subcutaneously administered on the back 30 minutes before the start of the test. At the time of the start of the test, video recording with a video camera was started, the time at which the mouse entered into the plus maze is considered to be the start of the test, and exploratory behavior was recorded for 5 minutes. On the basis of the video image, staying times in the running routes were determined, and wall-less running route staying time ratio (%) was calculated.

The target in series [5] is T4, hERG potassium channel (Homo sapiens, UniProt Q12809).
T4 construct: host or cells: CHO cells
The series can be described thus: hERG potassium channel inhibition test (automatic patch clamp). The class given is cell-based. As to conditions: pH 7.4, hERG-expressing CHO cells, tail current, read-out: hERG channel inhibitory action. How it is done:
hERG (Human Ether-A-Go-Go-Related Gene) Potassium Channel Inhibition Test
The test was performed with Port-a-Patch automatic patch clump apparatus (Nanion Technologies) using hERG channel-stably expressing CHO cells (purchased from Channelopathy Foundation). The membrane potential of the cells was maintained at −80 mV, then there were applied a depolarization pulse at +20 mV for 1.5 seconds, and a following test pulse at −50 mV for 1.5 seconds at a frequency of 1 time per 10 seconds, and the hERG current was confirmed as a tail current induced by the test pulse. The test compound was dissolved in an extracellular fluid (137 mM NaCl, 4 mM KCl, 1.8 mM CaCl2, 1 mM MgCl2, 10 mM D(+)-glucose, 10 mM HEPES, pH 7.4), and the solution was refluxed at room temperature for 5 minutes. The inhibition ratio was obtained from the ratio of the tail current value observed after the compound was applied based on the tail current value observed before the compound was applied, which was taken as 100%.
Background: Block of hERG is tested as a sign of cardiac risk.

Series [6] is described as follows: Metabolic stability test. As to conditions: liver microsomes; human hepatic microsomes, 0 to 60 minutes; read-out: metabolic clearance CLint. The format is in vitro ADME. How it is done:
Human hepatic microsomes and a test substance were reacted for a certain period of time (0 to 60 minutes). The test substance, which was not metabolized in the reaction sample, was measured, and remaining ratio was calculated. The test substance-remaining ratio at the time when the reaction time is 0 hour is taken as 100%. The remaining ratio after incubation was plotted against time as a log-linear plot to obtain a regression line (y=100 e^−kt, k=inclination of straight line: clearance rate constant), and metabolic clearance CLint (mL/min/kg) was calculated by using the following equation. CLint*=k(−min)×52.5(mg MS protein/g liver)×26(g liver/kg)/MS protein (mg MS protein/mL) • *: Davies, B. and Morris T., Physiological parameters in laboratory animals and humans, Pharm. Res., 10(7)1093-1095, 1993 (Test Results)

Series [7] has as its system Wistar male rats. The series can be described thus: Rat elevated plus maze test. The class given is in vivo. The note with it: oral, 3 mg/kg, 2 hours before test (FIG. 6). The procedure:
Rat Elevated Plus Maze Test
Anxiolytic effects of the compounds provided by the present invention were investigated by the rat elevated plus maze test.
For the test, 7 to 9 weeks old Wistar male rats were used. […] Each test substance was dissolved in a 4.5% aqueous solution of cyclodextrin, and orally administered 2 hours before the start of the test. The test data were automatically analyzed by using video image action analysis software (Smart3.0, PanLab S.L., PanLab), and wall-less running route staying time ratio (%) was calculated.

Marks after values point to notes of the source that are not given here.

T1 sequence (P41143 whole entry): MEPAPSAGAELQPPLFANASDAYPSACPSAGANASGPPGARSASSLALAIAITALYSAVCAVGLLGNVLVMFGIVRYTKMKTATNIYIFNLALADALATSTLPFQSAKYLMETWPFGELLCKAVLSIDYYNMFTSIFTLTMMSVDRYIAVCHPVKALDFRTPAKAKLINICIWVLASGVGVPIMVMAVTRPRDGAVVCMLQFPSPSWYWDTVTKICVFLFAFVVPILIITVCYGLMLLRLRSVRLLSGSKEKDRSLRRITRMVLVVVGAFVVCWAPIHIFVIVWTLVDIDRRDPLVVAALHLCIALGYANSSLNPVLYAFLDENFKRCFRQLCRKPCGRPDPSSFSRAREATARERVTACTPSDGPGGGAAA
T2 sequence (P35372 whole entry): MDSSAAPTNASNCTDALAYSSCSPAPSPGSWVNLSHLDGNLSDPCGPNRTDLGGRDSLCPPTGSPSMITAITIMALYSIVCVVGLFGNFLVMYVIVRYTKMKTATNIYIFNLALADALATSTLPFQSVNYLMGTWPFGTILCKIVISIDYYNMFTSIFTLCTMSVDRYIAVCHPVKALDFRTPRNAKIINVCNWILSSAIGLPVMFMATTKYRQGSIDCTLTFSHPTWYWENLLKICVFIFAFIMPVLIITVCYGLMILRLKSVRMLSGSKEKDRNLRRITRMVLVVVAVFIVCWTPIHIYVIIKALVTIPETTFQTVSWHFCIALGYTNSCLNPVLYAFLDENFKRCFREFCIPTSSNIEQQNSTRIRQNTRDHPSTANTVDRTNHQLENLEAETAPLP
T3 sequence (P41145 whole entry): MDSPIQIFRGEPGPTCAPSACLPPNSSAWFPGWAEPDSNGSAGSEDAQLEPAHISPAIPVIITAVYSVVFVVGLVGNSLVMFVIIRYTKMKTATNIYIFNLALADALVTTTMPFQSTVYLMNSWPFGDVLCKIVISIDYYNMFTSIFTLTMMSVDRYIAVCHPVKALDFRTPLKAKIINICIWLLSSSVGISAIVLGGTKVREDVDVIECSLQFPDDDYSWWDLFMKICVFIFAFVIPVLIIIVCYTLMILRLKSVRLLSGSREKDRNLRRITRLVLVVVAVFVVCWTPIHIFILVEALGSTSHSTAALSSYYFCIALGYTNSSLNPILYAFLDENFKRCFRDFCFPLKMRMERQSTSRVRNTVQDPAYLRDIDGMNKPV
T4 sequence (Q12809 whole entry): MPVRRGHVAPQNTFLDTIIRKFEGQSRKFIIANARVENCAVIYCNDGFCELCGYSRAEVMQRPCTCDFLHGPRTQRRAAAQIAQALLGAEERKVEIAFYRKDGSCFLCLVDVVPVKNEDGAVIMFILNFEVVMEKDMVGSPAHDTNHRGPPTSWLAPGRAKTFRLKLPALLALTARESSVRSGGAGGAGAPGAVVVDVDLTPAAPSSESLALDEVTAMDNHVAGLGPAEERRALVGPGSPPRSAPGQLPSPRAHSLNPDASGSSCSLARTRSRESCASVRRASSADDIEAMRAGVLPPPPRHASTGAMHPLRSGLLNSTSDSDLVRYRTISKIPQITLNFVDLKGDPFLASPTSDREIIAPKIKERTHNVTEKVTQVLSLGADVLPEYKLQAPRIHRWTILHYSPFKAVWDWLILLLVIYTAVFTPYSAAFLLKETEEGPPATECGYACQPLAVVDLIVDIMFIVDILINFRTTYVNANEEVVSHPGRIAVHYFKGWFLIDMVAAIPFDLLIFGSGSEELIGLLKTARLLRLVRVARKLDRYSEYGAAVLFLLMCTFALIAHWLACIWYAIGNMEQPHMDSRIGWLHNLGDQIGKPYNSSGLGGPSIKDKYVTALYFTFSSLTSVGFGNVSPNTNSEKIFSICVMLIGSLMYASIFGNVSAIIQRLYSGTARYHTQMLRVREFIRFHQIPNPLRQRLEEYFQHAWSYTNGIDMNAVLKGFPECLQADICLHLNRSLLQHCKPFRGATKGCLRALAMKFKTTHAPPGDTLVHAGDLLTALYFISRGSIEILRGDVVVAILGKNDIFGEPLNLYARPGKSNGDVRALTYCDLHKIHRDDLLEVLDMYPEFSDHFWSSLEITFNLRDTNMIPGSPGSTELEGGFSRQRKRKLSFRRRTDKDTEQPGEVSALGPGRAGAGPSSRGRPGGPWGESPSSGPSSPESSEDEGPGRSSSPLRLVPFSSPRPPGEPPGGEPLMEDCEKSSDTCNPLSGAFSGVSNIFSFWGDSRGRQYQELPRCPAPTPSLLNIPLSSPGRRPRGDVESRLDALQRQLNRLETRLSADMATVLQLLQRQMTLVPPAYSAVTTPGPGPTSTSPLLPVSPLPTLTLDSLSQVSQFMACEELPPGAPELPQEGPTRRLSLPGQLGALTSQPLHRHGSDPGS

The EC50 is the concentration needed to bring the measured effect to its halfway point. As usually defined, the Emax is the greatest response seen or fitted, relative to the assay's reference. Turning to `O=C(c1cccc[n+]1[O-])N1C[C@H]2C[C@@]34CC[C@@H]1[C@@H]2[C@@]31CCN(CC2CC2)[C@@H]4Cc2ccc(O)cc21` [Example 1, 2-((1S,3aR,5aS,6R,11bR,11cS)-14-(cyclopropylmethyl)-10-hydroxy-2,3,3a,4,5,6,7,11c-octahydro-1H-6,11b-(epiminoethano)-1,5a-methanonaphtho[1,2-e]indole-3-carbonyl)pyridine 1-oxide], in series [1], the EC50 is under 3 nM and the Emax is 88%. Also, the “μ receptor reaction rate at the maximum concentration (reference value, marked *)” value in series [2] is 8.3* %. For the same molecule, in series [3], the EC50 was over 1 nM and the Emax stood at 12%. Also, the “wall-less running route staying time ratio” value in series [4] (3 mg/kg, 30 minutes before test (FIG. 1)) is “significantly increased”. The inhibition at 5 min, 10 µM in series [5] was under 50%. The CLint scaled in series [6] is 19 mL/min/kg.
For the molecule `O=C(c1ccc[nH]c1=O)N1C[C@H]2C[C@@]34CC[C@@H]1[C@@H]2[C@@]31CCN(CC2CC2)[C@@H]4Cc2ccc(O)cc21` [Example 3, 3-((1S,3aR,5aS,6R,11bR,11cS)-14-(cyclopropylmethyl)-10-hydroxy-2,3,3a,4,5,6,7,11c-octahydro-1H-6,11b-(epiminoethano)-1,5a-methanonaphtho[1,2-e]indole-3-carbonyl)pyridin-2(1H)-one], the results for the EC50 in series [1], in series [2] and in series [3] were under 3 nM, over 1 nM and under 1 nM, respectively. For the same molecule, the Emax in series [1] worked out at 98%; in series [2] it was 20%; in series [3], 15%. The “wall-less running route staying time ratio” value in series [4] (dose not stated (FIGS. 3 to 5)) was “tendency of increasing”; in series [7], “significantly increased”. In series [5], the inhibition at 5 min, 10 µM is under 50%.
As to `Cn1cc(C(=O)N2C[C@H]3C[C@@]45CC[C@@H]2[C@@H]3[C@@]42CCN(CC3CC3)[C@@H]5Cc3ccc(O)cc32)ccc1=O` [Example 9, 5-((1S,3aR,5aS,6R,11bR,11cS)-14-(cyclopropylmethyl)-10-hydroxy-2,3,3a,4,5,6,7,11c-octahydro-1H-6,11b-(epiminoethano)-1,5a-methanonaphtho[1,2-e]indole-3-carbonyl)-1-methylpyridin-2(1H)-one], the EC50 in series [1] was under 3 nM; in series [2], under 1 nM; in series [3], under 1 nM. Also, the results for the maximal effect (Emax) in series [1], in series [2] and in series [3] were 74%, 15% and 14%, respectively. Besides, the “wall-less running route staying time ratio” value in series [4] (dose not stated (FIGS. 3 to 5)) is recorded as “tendency of increasing”. Further, the inhibition at 5 min, 10 µM in series [5] is under 50%.
Consider `Cn1c(C(=O)N2C[C@H]3C[C@@]45CC[C@@H]2[C@@H]3[C@@]42CCN(CC3CC3)[C@@H]5Cc3ccc(O)cc32)cccc1=O` [Example 10, 6-((1S,3aR,5aS,6R,11bR,11cS)-14-(cyclopropylmethyl)-10-hydroxy-2,3,3a,4,5,6,7,11c-octahydro-1H-6,11b-(epiminoethano)-1,5a-methanonaphtho[1,2-e]indole-3-carbonyl)-1-methylpyridin-2(1H)-one], for which, in series [1], the EC50 was under 3 nM and the Emax came to 74%. Also, the “μ receptor reaction rate at the maximum concentration (reference value, marked *)” value in series [2] is listed as 6.0* %. Moreover, the “κ receptor reaction rate at the maximum concentration (reference value, marked *)” value in series [3] (maximum reaction not reached, maximum concentration 10 μM, U-69593 = 100%) is on record as −0.7* %. In addition, the “wall-less running route staying time ratio” value in series [4] (dose not stated (FIGS. 3 to 5)) is reported as “tendency of increasing”. In series [7], the “wall-less running route staying time ratio” value is on record as “significantly increased”. For the same molecule, in series [5], the inhibition at 5 min, 10 µM was under 50%. In addition, the CLint scaled in series [6] worked out at 13 mL/min/kg.
On to `O=C(c1ccc(=O)[nH]n1)N1C[C@H]2C[C@@]34CC[C@@H]1[C@@H]2[C@@]31CCN(CC2CC2)[C@@H]4Cc2ccc(O)cc21` [Example 16, 6-((1S,3aR,5aS,6R,11bR,11cS)-14-(cyclopropylmethyl)-10-hydroxy-2,3,3a,4,5,6,7,11c-octahydro-1H-6,11b-(epiminoethano)-1,5a-methanonaphtho[1,2-e]indole-3-carbonyl)pyridazin-3(2H)-one], for which the EC50 in series [1] is under 3 nM; in series [2] it was over 1 nM; in series [3], under 1 nM. Besides, the values for the Emax in series [1], in series [2] and in series [3] were 92%, 19% and 29%, respectively. Moreover, the CLint scaled in series [6] came to 18 mL/min/kg.
